Assay: not given
Conditions: Japanese Pharmaceutical Excipients Directory 2000; cited from earlier work

SMILES | maximum dose in case of intravenous administration
O=C(CO)[C@@H](O)[C@H](O)[C@H](O)CO [fructose] | 0.9 g
O=C[C@H](O)[C@@H](O)[C@H](O)[C@H](O)CO [glucose] | 8 g
OC[C@H]1O[C@@H](O[C@H]2[C@H](O)[C@@H](O)C(O)O[C@@H]2CO)[C@H](O)[C@@H](O)[C@H]1O (some centres unmarked) [lactose] | 1.25 g
OC[C@@H](O)[C@@H](O)[C@H](O)[C@H](O)CO [mannitol] | 1.2 g
OC[C@H]1O[C@H](O[C@H]2[C@H](O)[C@@H](O)[C@H](O)O[C@@H]2CO)[C@H](O)[C@@H](O)[C@@H]1O [martose] | 10 g
OC[C@@H](O)[C@@H](O)[C@H](O)[C@@H](O)CO [sorbitol] | 1.5 g
OC[C@@H](O)[C@H](O)[C@@H](O)CO [xylitol] | 0.2 g

Assay: Relationship between pH and decrease of radiochemical purity (storage at 25° C., TLC analysis)
Format: physicochemical
Conditions: pH value not more than 5.9, no pharmaceutical additives or buffers that prevent radiolysis
Procedure: Radioactivity of the obtained stock solution of anti-[^18F]-FACBC was measured, and then the stock solution was diluted with a physiological saline solution so as to have a radioactive concentration of about 510 MBq/mL at the time when experiment was initiated (0 hour in Table 9). 2.23 mL of this solution was aliquoted in a vial of 5 mL in volume, and a predetermined amount of a predetermined solution indicated in Table 8 was added thereto, to obtain a sample solution. The radioactive concentration of the sample solutions at the end of preparation was […].
The sample solution was stored in an electric thermostatic chamber adjusted to 25° C., and was then subjected to TLC analysis which was performed on the following conditions at the time of initiation of the experiment (0 hour) and 8.5 hours after the initiation of the experiment. Values of radiochemical purity were calculated in accordance with the following equation (1). Measurement of the radiochemical purity was repeated three times for each sample solution.
Mobile phase: acetonitrile/water/100% acetic acid=4/1/1
TLC plate: Silica Gel 60F254 (trade name, thickness: 0.25 mm, manufactured by Merck & Co., Inc.)
TLC scanner: Rita Star (manufactured by Raytest)
Number of analysis: Three times

stability against radiolysis | SMILES
stability thereof is maintained | NC1(C(=O)O)CC([18F])C1 (centres unmarked) [[^18F]FACBC, 3-[^18F]fluoro-1-aminocyclobutanecarboxylic acid]
